In US12161608B2, “Methods of preventing and treating health conditions using cannabinoid anions” (NATURAL EXTRACTION SYSTEMS, LLC, priority 2019, dated 2024):

Tests used:
individual with anxiety = assay: Treatment of anxiety; format: in vivo, human
Method: An individual was administered a beverage containing the cannabidiol anion prior to driving to an airport to catch a flight that was scheduled to leave within thirty minutes of the arrival at the airport.
An individual who suffers from chronic anxiety was administered a glycerol tincture containing the cannabigerol anion.

[1] = system: dog that suffers from chronic seizures; assay: Treatment of epilepsy; format: in vivo; details: report of the dog's owners
Method: A dog that suffers from chronic seizures was administered a glycerol tincture containing the cannabidiol anion immediately after the onset of a seizure.

[2] = system: individual with arthritis; assay: Treatment of arthritis; format: in vivo, human; details: glycerol tincture; self-report of one individual
Method: An individual who was unable to fill […] hydroxychloroquine prescription to treat the arthritis during the COVID-19 pandemic was administered a glycerol tincture containing the cannabidiol anion.

[3] = system: individual with cramping and restless legs syndrome; assay: Treatment of cramping and restless legs syndrome; format: in vivo, human; details: glycerol tincture before sleep; self-report of one individual
Method: An individual who presented with cramping and restless legs syndrome was administered a glycerol tincture containing the cannabidiol anion before sleep.

[4] = system: individual with social anxiety associated with presenting at business meetings; assay: Treatment of social anxiety; format: in vivo, human; details: beverage given before presenting at a business meeting; self-report
Method: An individual who presented with social anxiety associated with presenting at business meetings was administered a beverage containing the cannabidiol anion before presenting.

[5] = system: individual with hip pain associated with sitting; assay: Treatment of chronic hip pain; format: in vivo, human; details: glycerol tincture, ingested; self-report of one individual
Method: An individual who presented with hip pain associated with sitting was administered a glycerol tincture containing the cannabidiol anion.

[6] = system: individual with knee pain associated with inflammation caused by trauma from a fall; assay: Treatment of knee pain; format: in vivo, human; details: glycerol tincture, ingested; self-report of one individual
Method: An individual who presented with knee pain associated with inflammation caused by trauma from a fall was administered a glycerol tincture containing the cannabidiol anion.

[7] = system: individual with chronic back pain associated with standing; assay: Treatment of chronic back pain; format: in vivo, human; details: glycerol tincture, ingested; self-report of one individual
Method: An individual who presented with chronic back pain associated with standing was administered a glycerol tincture containing the cannabidiol anion.

[8] = system: individual with chronic pain; assay: Treatment of chronic pain; format: in vivo, human; details: glycerol tincture; self-report of one individual
Method: An individual who presented with chronic pain was administered a glycerol tincture containing the cannabidiol anion.

[9] = system: individual with back pain associated with driving for prolonged periods of time; assay: Treatment of acute back pain; format: in vivo, human; details: glycerol tincture, ingested; self-report of one individual
Method: An individual who presented with back pain associated with driving for prolonged periods of time was administered a glycerol tincture containing the cannabidiol anion.

[10] = system: individual with hip pain and lower back pain associated with spinal fusion surgery; assay: Treatment of post laminectomy syndrome; format: in vivo, human; details: glycerol tincture, ingested, self-report
Method: An individual with hip pain and lower back pain associated with spinal fusion surgery was administered a glycerol tincture containing the cannabidiol anion.

[11] = system: individual with cancer pain caused by throat cancer; assay: Treatment of cancer pain; format: in vivo, human; details: water containing the anion, ingested; self-report of one individual
Method: An individual who presented with cancer pain caused by throat cancer was administered water containing the cannabidiol anion (2-[6-isopropenyl-3-methylcyclohex-2-en-1-yl]-3-hydroxy-5-pentylphenolate).

[12] = system: individual with Crohn's disease; assay: Treatment of Crohn's disease; format: in vivo, human; details: glycerol tincture; self-report of one individual
Method: An individual who presented with Crohn's disease was administered a glycerol tincture containing the cannabigerol anion.

[13] = system: individual with Inflammatory Bowel Disease; assay: Treatment of Inflammatory Bowel Disease; format: in vivo, human; details: glycerol tincture; self-report of one individual
Method: An individual who presented with Inflammatory Bowel Disease was administered a glycerol tincture containing the cannabigerol anion.

[14] = system: individual with chronic insomnia; assay: Treatment of insomnia; format: in vivo, human; details: glycerol tincture before sleep; self-report of one individual
Method: An individual who presented with chronic insomnia was administered a glycerol tincture containing the cannabigerol anion before sleep.

SMILES	reported anxiety during a drive to an airport (individual with anxiety; beverage given prior to driving, self-report of one individual)	effect on seizures ([1]; glycerol tincture immediately after the onset of a seizure)	effect on quality of life ([1]; glycerol tincture)	reported effectiveness at treating arthritis compared with hydroxychloroquine [2]	reported effect on sleep quality [3]	reported effect on social anxiety and performance [4]	reported effect on hip pain [5]	reported effect on mobility and knee pain [6]	reported effect on chronic back pain [7]	reported effect in chronic pain (standard of living) [8]	reported effect on back pain [9]	reported effect on hip pain and lower back pain [10]	reported effect on throat pain [11]	reported effect on chronic anxiety symptoms (individual with anxiety; glycerol tincture, individual who suffers from chronic anxiety, self-report)	reported effect on symptoms of Crohn's disease [12]	reported effect on symptoms of Inflammatory Bowel Disease [13]	reported effect on onset and quality of sleep [14]
C=C(C)C1CCC(C)=CC1c1c(O)cc(CCCCC)cc1O (centres unmarked) [cannabidiol anion, 2-[6-isopropenyl-3-methylcyclohex-2-en-1-yl]-3-hydroxy-5-pentylphenolate]	notable absence of anxiety	both instantaneously and consistently arrested multiple seizures in the dog	significantly improved the dog's quality of life	more effective at treating their arthritis than hydroxychloroquine	significant improvement in sleep quality	reduced anxiety and improved performance during the business meeting	notable alleviation of the hip pain within minutes of ingestion	improved mobility and alleviation of knee pain within minutes of ingestion	notable alleviation of the back pain within minutes of ingestion	significant improvement in their standard of living	notable alleviation of the back pain within minutes of ingestion	notable alleviation of hip pain and lower back pain within minutes of ingestion	notable alleviation of throat pain within minutes of ingestion				
CCCCCc1cc(O)c(CC=C(C)CCC=C(C)C)c(O)c1 [cannabigerol anion, 2-[3,7-dimethylocta-2,6-diene-1-yl]-3-hydroxy-5-pentylphenolate]														significant improvement in their anxiety symptoms	significant improvement in their symptoms of Crohn's disease	significant improvement in their symptoms of Inflammatory Bowel Disease	significant improvement in the onset and quality of their sleep
